This is an account of results in US20240090498A1, “ANTIMICROBIAL COMPOSITIONS” (TAKASAGO INTERNATIONAL CORPORATION, priority 2010, published 2024).

Format in all cases: cell-based
One test has as its system E.f. 29212. The test can be described thus: MIC in solution. Conditions: Enterococcus faecalis. Here is the method:
(§1) MIC values were also determined for trans-2 octenal, octanal formulations, and MEO in solution and in the vapor phase.

Another test has as its system E.h. 10541. Description: MIC in solution. The note with it: Enterococcus hirae. Here is the method:
as §1

Another test concerns P.a. 15442. Description: MIC in solution. Conditions: Pseudomonas aeruginosa. Here is the method:
as §1

A further test has as its system E.c. 10536. The test can be described thus: MIC in solution. Conditions: Escherichia coli. Here is the method: as §1
The test system of the next test is S.a. 6538. The test can be described thus: MIC in solution. Conditions: Staphylococcus aureus. Here is the method:
as §1

The next test has as its system S.e. 13311. Description: MIC in solution. Conditions: Salmonella enterica. Here is the method:
as §1

The test system of test [1] is Enterococcus hirae ATCC 10541. The test can be described thus: Vapor phase MIC / combined FIC on seeded BHI agar plates in sealed 7 L box. Conditions: ATCC10541, 72 h, E. hirae, no growth after 3 days at room temperature, read-out: MIC alone (single material, vapor phase). From the text:
(§2) Seeded brain heart infusion (BHI) agar plates of Escherichia coli ATCC 10536, Salmonella enterica ATCC13311, Pseudomonas aeruginosa ATCC 15422, Staphylococcus aureus ATCC 6538, Enterococcus faecalis ATCC 29212, and Enterococcus hirae ATCC 10541 were placed in sealed 7 L acrylic boxes and exposed to vapors of trans-2-alkenals (C6 to C11 carbon chain length) and mustard essential oil (MEO) binary combinations.
(§3) The trans-2-alkenals and MEO were weighed neat into a glass jar which was positioned in the box between the seeded agar plates. The concentration of the single materials and binary combinations introduce in the 7 L box were expressed as weight per unit volume of the box (mg/L). Several concentrations ranging from 0.5 mg/L to 43 mg/L of the single materials and combinations were tested for each organism. The vapor phase minimum inhibition concentration (MIC) with “no growth” after 3 days of incubation at room temperature. Fractional Inhibition Concentrations (FIC) was determined to evaluate the antibacterial effect of trans-2-alkenals and MEO combinations in the vapor phase based on the following formula:
(§4) Combined FIC=(MIC of trans-2-alkenalcombination/MIC of trans-2-alkenalalone)+(MIC of MEOcombination/MIC of MEOalone)
(§5) Combined FIC values for trans-2-alkenals and MEO combinations are shown below in Table 1. Combinations with combined FIC equal or less than 0.5 are considered to have a strong synergistic effect.

Test [2] has as its system Staphylococcus aureus ATCC 6538. Described as above. The note with it: ATCC6538, 72 h, S. aureus, no growth after 3 days at room temperature, read-out: MIC alone (single material, vapor phase).
Text: as §2, §3, §4, §5

For test [3], the system named is Pseudomonas aeruginosa ATCC 15422. Described as above. The note with it: ATCC15422, 72 h, P. aeruginosa, no growth after 3 days at room temperature, read-out: MIC alone (single material, vapor phase).
Text: as §2, §3, §4, §5

Test [4] concerns Salmonella enterica ATCC13311. Described as above. Conditions: ATCC13311, 72 h, S. enterica, no growth after 3 days at room temperature, read-out: MIC alone (single material, vapor phase).
Text: as §2, §3, §4, §5

Test [5] relates to Enterococcus faecalis ATCC 29212. Described as above. Conditions: ATCC29212, 72 h, E. faecalis, no growth after 3 days at room temperature, read-out: MIC alone (single material, vapor phase).
Text: as §2, §3, §4, §5

Test [6] has as its system Escherichia coli ATCC 10536. The test is described as above. The note with it: ATCC10536, 72 h, E. coli, no growth after 3 days at room temperature, read-out: MIC alone (single material, vapor phase).
Text: as §2, §3, §4, §5

The test system of test [7] is Enterococcus hirae ATCC 10541. Description: Vapor phase activity against bacteria (Example 2, growth grading versus control). Further: key: −: No Activity (growth); +: Slight Activity (some growth, but much less than control); ++: Medium Activity (pinprick growth); +++: High Activity (no growth). The note with it: E.h 10541; 7.1 or 9.3 mg/L as defined per composition; sealed 7 L box. Here is the method:
(§6) Seeded brain heart infusion (BHI) agar plates of Escherichia coli ATCC 10536, Salmonella enterica ATCC13311, Pseudomonas aeruginosa ATCC 15422, Staphylococcus aureus ATCC 6538, Enterococcus faecalis ATCC 29212, and Enterococcus hirae ATCC 10541 were placed in sealed 7 L acrylic boxes and exposed to vapors of the compositions shown below. A control was established in which the agar plates was not treated with vapors. • Composition A: 9.3 mg/L of trans-2-hexenal • Composition B: 9.3 mg/L of trans-2-heptenal • Composition C: 9.3 mg/L of 2, 4-heptadienal • Composition D: 7.1 mg/L of trans-2-hexenal • Composition E: 7.1 mg/L of 2,4-heptadienal • Composition F: 7.1 mg/L of 2,4-heptadienal+citronellol (1:1) • Composition G: 9.3 mg/L of citronellal+citral DMA (1:1) • Composition H: 9.3 mg/L of benzaldehyde+citral DMA (1:1) • Composition I: 9.3 mg/L of furfural+citronellol (1:1) • Composition J: 7.1 mg/L of citral+citronellal (1:1) • Composition K: 7.1 mg/L of trans-2-hexenal+citronellol (1:1)

The subject of test [8] is Pseudomonas aeruginosa ATCC 15422. The description is as above. Conditions: P.a. 15442; 7.1 or 9.3 mg/L as defined per composition; sealed 7 L box. Here is the method:
as §6

For test [9], the system named is Staphylococcus aureus ATCC 6538. The description is as above. The note with it: S.a. 6538; 7.1 or 9.3 mg/L as defined per composition; sealed 7 L box. More on the design: key to the marks not given beside the values. Here is the method:
as §6

The subject of test [10] is Salmonella enterica ATCC13311. The test is described as above. More on the design: key to the marks not given beside the values. The note with it: S.e. 13311; 7.1 or 9.3 mg/L as defined per composition; sealed 7 L box. Here is the method:
as §6

In test [11] the test system is Enterococcus faecalis ATCC 29212. The test is described as above. More on the design: key to the marks not given beside the values. The note with it: E.f. 29212; 7.1 or 9.3 mg/L as defined per composition; sealed 7 L box. Here is the method: as §6
Test [12] concerns Escherichia coli ATCC 10536. Described as above. More on the design: key to the marks not given beside the values. The note with it: E.c. 10536; 7.1 or 9.3 mg/L as defined per composition; sealed 7 L box. Here is the method:
as §6

Bounds are passed on as bounds.
Wherever Vapor phase activity against bacteria is given: key: −: No Activity (growth); +: Slight Activity (some growth, but much less than control); ++: Medium Activity (pinprick growth); +++: High Activity (no growth).

Consider `CCCCC/C=C/C=O` [trans-2-octenal], for which the MIC against E.f. 29212, against E.h. 10541, in the test with P.a. 15442, against E.c. 10536, with S.a. 6538 and with S.e. 13311 was over 125 µg/mL throughout. Moreover, the MIC in [1] turned out to be 25.6 µg/mL; in [2], 3.6 µg/mL; in test [3] it was 43 µg/mL; in [4] it was 43 µg/mL; in test [5], 43 µg/mL; in test [6], 43 µg/mL.

As for `CCCCCCCC=O` [octanal], the MIC in the test on E.f. 29212, in the test on E.h. 10541, against P.a. 15442, with E.c. 10536, in the test on S.a. 6538 and in the test on S.e. 13311 was over 125 µg/mL throughout. Moreover, the MIC turned out to be 42.4 µg/mL in [1]; 7.8 µg/mL in test [2]; 84.8 µg/mL in test [3]; 42.4 µg/mL in [4]; 42.4 µg/mL in test [5]; 21.1 µg/mL in test [6].

For `CCCC/C=C/C=O` [Composition B, trans-2-heptenal], the “Vapor Phase Activity Against Bacteria” value in test [7] was “+++”; in [8], “+”; in test [9] it was “+++”; in test [10], “+++”; in test [11] it was “+++”; in test [12], “+++”.

Turning to `CCCC/C=C/C=O` [trans-2-heptenal], the values for the MIC in test [1], in test [3] and in test [5] were 12.8 µg/mL, 25.6 µg/mL and 6.4 µg/mL, respectively.

In the case of `CC/C=C/C=C/C=O` [Composition C, 2,4-heptadienal], the “Vapor Phase Activity Against Bacteria” value in test [7] was “+”; in test [8], “+++”; in test [9], “+++”; in [10] it was “+++”; in [11], “+++”; in [12], “+++”.

For `CCC/C=C/C=O` [Composition A, trans-2-hexenal], the “Vapor Phase Activity Against Bacteria” value is recorded as “+” in [7]; “+++” in test [8]; “+++” in [9]; “+++” in [10]; “+++” in test [11]; “+++” in test [12].

On to `CC/C=C/C=C/C=O` [Composition E, 2,4-heptadienal], for which the “Vapor Phase Activity Against Bacteria” value was “+” in [7]; “++” in test [8]; “+++” in [9]; “+++” in [10]; “++” in [11]; “+++” in [12].

Take `CCCCCCC/C=C/C=O` [trans-2-decenal]: the MIC is 6.4 µg/mL in test [1], 43 µg/mL in test [3] and 6.4 µg/mL in [5].

Take `CCCCCC/C=C/C=O` [trans-2-nonenal]: the MIC in test [1] was 6.4 µg/mL; in [3], 43 µg/mL; in [5] it was 6.4 µg/mL.

Consider `CCC/C=C/C=O` [trans-2-hexenal], for which the MIC was 12.8 µg/mL in test [1], 12.8 µg/mL in test [3] and 6.4 µg/mL in test [5].

Consider `CCCCCCCC/C=C/C=O` [trans-2-undecenal], for which the MIC turned out to be 12.8 µg/mL in [1], 43 µg/mL in [3] and 12.8 µg/mL in [5].
